According to patent US11820782B2, “Salt forms of amino pyrazine purine based selective kinase inhibitor” (FTG BIO LLC, priority 2018, dated 2023):
≈ marks a conversion by molar mass, not a printed value. Where two headings read alike, the source gives them in different places.

Columns and labels:
[1] = system: Human Plasma; test: Plasma protein binding, human; format: in vitro ADME; details: for % Bound, Human Plasma: 10 μM (n = 4)
Experimental: (§1) All in vitro experiments like protein binding, microsomal stability, cell cytotoxicity were performed as per study protocols of respective experiments.

[2] = system: Mouse plasma; test: Plasma protein binding, mouse; format: in vitro ADME; details: for % Bound, Mouse plasma: 10 μM (n = 4)
Experimental: as §1

[3] = Microsomal stability, PHLM; format: in vitro ADME; details: pooled human liver microsomes
Experimental: as §1

[4] = system: U-87 (giloblastoma, epithelial); test: Anti-proliferative effect, U-87; format: cell-based
Experimental: as §1

[5] = system: MDA-MB-231 (breast cancer); test: Anti-proliferative effect, MDA-MB-231; format: cell-based
Experimental: as §1

[6] = Qualitative (kinetic/visual) solubility in solvents/media; format: physicochemical
Experimental: 2 mg quantity of API was taken in glass vial and small portions of solvent was added with vortexing till the clear solution is obtained (at room temperature or heating up to 50-60° C.).
Weighed quantity of API was taken in glass vial and small portions of solvent was added with vortexing till the clear solution is obtained (at room temperature or heating up to 50-60° C.).

[7] = 1 week stability of shortlisted salts at 40° C./75% RH, open; format: physicochemical; details: for % purity / XRD: after 7 days at 40° C./75% RH, open; for % purity: HPLC; for XRD: physical form vs initial; for pH of 2% w/v aqueous dispersion/solution / state of 2% w/v aqueous dispersion/solution: 2% w/v in water
[8] = Intravenous and per oral pharmacokinetics in male Balb/c mice; format: in vivo; details: for Bioavailability (% F): PO dose (50 mg/kg) vs IV 10 mg/kg
Experimental: The husbandry conditions were maintained as described in animal facility SOPs during the study period. Animals procured were quarantined for 7 days followed by acclimatization for 5 days. The study was carried out for two days. Male Balb/c mice of age 10-12 weeks (18-25 g) and male Sprague Dawley rats 8-10 weeks (220-280 g) were used. The food was with held for a period of 4-12 hr prior to dosing and returned to all animals 4h post dosing and water supplied ad libitum. The doses of FT1518 were as follows: Mice: 10 mg/kg intravenous (i.v) and 50 mg/kg oral (p.o); rat—5 mg/kg intravenous (i.v) and 10 mg/kg oral (p.o). The formulation used in i.v and p.o studies were 10% dimethylsulfoxide (DMSO)+30% polyethyleneglycol 400 (PEG400)+60% water and 0.5% methylcellulose (MC)+0.1% tween 80. Blood was collected at the predetermined time points in mice (cardiac puncture) and Jugular vein (rats) over a period of 24h in eppendorf tubes containing K2EDTA as anticoagulant. The plasma was isolated from the blood and stored at −80° C. until bioanalysis. Species: BALB/C mice Gender: Male Dose: IV (10 mg/kg), Single dose • PO (50 mg/kg), single dose Formulation: • IV—DMSO: PEG400:Water (10:30:60 v/v) • PO— 0.5% methylcellulose and 0.1% Tween 80 in water Sampling Time Points: • IV: 5 min, 30 min, 1 h, 2, 4, 8 and 24 h post dose • PO: 10 min, 30 min, 1 h, 2, 4, 8 and 24 h post dose. PK analysis: Phoenix software (Pharsight product). Noncompartmental Analysis (NCA) was used to estimate the PK parameters. FIG. 56 depicts a pharmacokinetic profile of FT-1518 base in mice. Table 31 summarizes PK parameters used in a pharmacokinetic profile with intravenous dose in mice and Table 32 summarizes PK parameters used in a pharmacokinetic profile with per oral dose in mice.

[9] = Hygroscopicity (dynamic vapor sorption); format: physicochemical
Experimental: Sorption isotherms were obtained using a VTI-SA+-moisture sorption analyzer from TA instruments. The sample temperature was maintained at 25° C. by the instrument controls. The humidity was controlled by mixing the streams of dry and wet nitrogen, with a total flow rate of 200 mL/minute. The weight change of the sample as a function of % RH was constantly monitored by microbalance.
Typically, 5 to 20 mg of the sample was weighed under ambient conditions in a tared mesh stainless steel basket. The sample was loaded and unloaded at 40% RH and 25° C. A moisture sorption isotherm was performed as outlined. The standard isotherm was performed at 25° C. at 10% RH intervals over a 0 to 90% RH range. Sample was dried at 40° C. from ambient room conditions to 0% RH.

[10] = Equilibrium solubility in pH 6.8 0.01M phosphate buffer by HPLC; format: physicochemical; details: pH6.8 0.01M potassium dihydrogen phosphate buffer
[11] = IV dose (10 mg/kg), single dose, male Balb/c mice
[12] = PO dose (50 mg/kg), single dose, male Balb/c mice, 50 mg/kg
[13] = normal room temperature / ambient conditions
[14] = male, Balb/c, mouse, plasma, po, 50 mg/kg, PO dose (50 mg/kg), single dose, male Balb/c mice

SMILES: CCC(CC)n1cnc2c(-c3cnc(N)cn3)nc(N3CC4CCC(C3)O4)nc21 [FT-1518 base]
- plasma protein binding, human plasma [1]: ✓ FT1518, FT1518-Esylate and FT1518-Oxalate showed moderate plasma protein binding in both mouse and human plasma
- % Bound, Human Plasma [1]: 97.32%
- plasma protein binding, mouse plasma [2]: ✓ FT1518, FT1518-Esylate and FT1518-Oxalate showed moderate plasma protein binding in both mouse and human plasma
- % Bound, Mouse plasma [2]: 91.52%
- Invitro T1/2, PHLM ([3]; 3 μM (n = 3)): >1 h
- stability in PHLM [3]: ✓ FT1518, FT 1518-Esylate and FT1518-Oxalate was highly stable in PHLM and RLM
- IC50 [4]: > 10 µM
- IC50 [5]: > 30 µM
- solubility (descriptive term) ([6]; 0.11N HCl): soluble
- Solubility ([6]; 1,4-dioxane): >100 mg/mL
- solubility (descriptive term) ([6]; 1,4-dioxane): freely soluble
- Solubility ([6]; Dimethyl sulphoxide): >100 mg/mL
- solubility (descriptive term) ([6]; Dimethyl sulphoxide): freely soluble
- Solubility ([6]; N,N-dimethyl acetamide): >100 mg/mL
- solubility (descriptive term) ([6]; N,N-dimethyl acetamide): freely soluble
- Solubility ([6]; N-methyl pyrrolidone): >100 mg/mL
- solubility (descriptive term) ([6]; N-methyl pyrrolidone): freely soluble
- Solubility ([6]; Purified water): <1 mg/mL
- Solubility ([6]; Tetrahydrofuran): >100 mg/mL
- solubility (descriptive term) ([6]; Tetrahydrofuran): freely soluble
- solubility (descriptive term) ([6]; acetone): freely soluble
- solubility (descriptive term) ([6]; acetonitrile): soluble
- Solubility ([6]; dichloromethane): >100 mg/mL
- solubility (descriptive term) ([6]; dichloromethane): freely soluble
- Solubility ([6]; diethyl ether): <1 mg/mL
- solubility (descriptive term) ([6]; diethyl ether): insoluble
- Solubility ([6]; ethanol): >100 mg/mL
- solubility (descriptive term) ([6]; ethanol): freely soluble
- solubility (descriptive term) ([6]; ethyl acetate): soluble
- solubility (descriptive term) ([6]; isopropyl acetate): soluble
- solubility (descriptive term) ([6]; isopropyl alcohol): freely soluble
- Solubility ([6]; methanol): >100 mg/mL
- solubility (descriptive term) ([6]; methanol): freely soluble
- solubility (descriptive term) ([6]; methyl tertiary butyl ether): slightly soluble
- Solubility ([6]; n-heptane): <1 mg/mL
- solubility (descriptive term) ([6]; n-heptane): insoluble
- Solubility ([6]; n-hexane): <1 mg/mL
- solubility (descriptive term) ([6]; n-hexane): insoluble
- solubility (descriptive term) ([6]; purified water, listed as FT1518): practically insoluble
- solubility (descriptive term) ([6]; purified water, listed as FT-1518): insoluble
- solubility (descriptive term) ([6]; toluene): soluble
- % purity [7]: 97.82%
- XRD [7]: Same as initial form
- clearance as % of mouse liver blood flow ([8]; IV 10 mg/kg, mice): ~30%
- AUC0-∞ [8, 11]: 7.637 ± 2.021 µg·h/mL
- Cl [8, 11]: 1.4 ± 0.5 L/h/kg
- Bioavailability (% F) ([8]; male Balb/c mice): 68 % F
- AUC0-∞ [8, 12]: 25.801 ± 0.404 µg·h/mL
- Cmax [8, 12]: 8.761 ± 0.718 µg/mL
- Tmax [8, 12]: 0.2 h
- hygroscopicity [9, 13]: non-hygroscopic
- hygroscopicity ([9]; sorption cycle 0 to 95% RH at 25° C.): slightly hygroscopic. As there was no
- moisture uptake ([9]; up to 70% RH, 25° C.): There was about <2% moisture uptake up
- Solubility in pH 6.8 buffer ([10]; listed as Free base of FT-1518): 0.02 mg/mL

SMILES: CCC(CC)n1cnc2c(-c3cnc(N)cn3)nc(N3CC4CCC(C3)O4)nc21 [FT-1518-Esylate]
- plasma protein binding, human plasma [1]: ✓ FT1518, FT1518-Esylate and FT1518-Oxalate showed moderate plasma protein binding in both mouse and human plasma
- plasma protein binding, mouse plasma [2]: ✓ FT1518, FT1518-Esylate and FT1518-Oxalate showed moderate plasma protein binding in both mouse and human plasma
- half-life at 3 μM ([3]; 3 μM (n = 3), read-out: Invitro T1/2, PHLM): > 1 h
- stability in PHLM [3]: ✓ FT1518, FT 1518-Esylate and FT1518-Oxalate was highly stable in PHLM and RLM
- IC50 [4]: > 10 µM
- IC50 ([5]; Homo sapiens): > 10 µM
- Solubility ([6]; N-methyl pyrrolidone, organic solvent or mixture, thermodynamic from solid, N-methyl pyrrolidone, read-out: Solubility): > 100 mg/mL
- Solubility ([6]; Tetrahydrofuran): <1 mg/mL
- Solubility ([6]; acetone, organic solvent or mixture, thermodynamic from solid, Acetone, read-out: Solubility): < 1 mg/mL
- Solubility ([6]; acetonitrile, organic solvent or mixture, thermodynamic from solid, Acetonitrile, read-out: Solubility): > 100 mg/mL
- Solubility ([6]; dimethyl sulphoxide, organic solvent or mixture, thermodynamic from solid, Dimethyl sulphoxide, read-out: Solubility): > 100 mg/mL
- Solubility ([6]; ethyl acetate, organic solvent or mixture, thermodynamic from solid, Ethyl acetate, read-out: Solubility): < 1 mg/mL
- Solubility ([6]; isopropyl alcohol (2-propanol), organic solvent or mixture, thermodynamic from solid, Isopropyl alcohol (2-propanol), read-out: Solubility): 10 to 25 mg/mL (≈ 25.3 to 63.4 mM)
- Solubility ([6]; n-hexane, organic solvent or mixture, thermodynamic from solid, n-hexane, read-out: Solubility): < 1 mg/mL
- Solubility ([6]; toluene, organic solvent or mixture, thermodynamic from solid, Toluene, read-out: Solubility): < 1 mg/mL
- pH of 2% w/v aqueous dispersion/solution [7]: 2.1
- state of 2% w/v aqueous dispersion/solution [7]: soluble
- % purity [7]: 98.07%
- XRD [7]: Same as initial form
- Bioavailability (% F) ([8]; male Balb/c mice): 62 % F
- AUC(0-inf) [8, 14]: 23.7 ± 9.25 µg·h/mL
- half-life [8, 14]: 3.4 ± 1.2 h
- Cmax ([8]; male, Balb/c, mouse, plasma, po, 50 mg/kg, PO dose (50 mg/kg), single dose, male Balb/c mice, read-out: Cmax): 8.19 ± 0.891 µg/mL
- Tmax ([8]; mouse, plasma, PO dose (50 mg/kg), single dose, male Balb/c mice, read-out: Tmax): 0.3 ± 0.2 h
- hygroscopicity [9, 13]: non-hygroscopic
- Solubility in pH 6.8 buffer [10]: 77.98 mg/mL

SMILES: CCC(CC)n1cnc2c(-c3cnc(N)cn3)nc(N3CC4CCC(C3)O4)nc21 [FT-1518-Oxalate]
- plasma protein binding, human plasma [1]: ✓ FT1518, FT1518-Esylate and FT1518-Oxalate showed moderate plasma protein binding in both mouse and human plasma
- % Bound, Human Plasma [1]: 95.54%
- plasma protein binding, mouse plasma [2]: ✓ FT1518, FT1518-Esylate and FT1518-Oxalate showed moderate plasma protein binding in both mouse and human plasma
- % Bound, Mouse plasma [2]: 91.79%
- Invitro T1/2, PHLM ([3]; 3 μM (n = 3)): >1 h
- stability in PHLM [3]: ✓ FT1518, FT 1518-Esylate and FT1518-Oxalate was highly stable in PHLM and RLM
- IC50 [4]: > 10 µM
- IC50 [5]: > 10 µM
- Solubility ([6]; Dimethyl sulphoxide): >100 mg/mL
- Solubility ([6]; N-methyl pyrrolidone): >100 mg/mL
- Solubility ([6]; dichloromethane): <1 mg/mL
- Solubility ([6]; ethyl acetate): <1 mg/mL
- Solubility ([6]; n-hexane): <1 mg/mL
- Solubility ([6]; toluene): <1 mg/mL
- pH of 2% w/v aqueous dispersion/solution [7]: 2.6
- state of 2% w/v aqueous dispersion/solution [7]: dispersion
- % purity [7]: 97.04%
- XRD [7]: Same as initial form
- bioavailability in comparison to esylate salt and base ([8]; PO 50 mg/kg, Balb/c male mice): FT-1518-oxalate salt showed high bioavailability in comparison to esylate salt and base.
- Bioavailability (% F) ([8]; male Balb/c mice): 76 % F
- AUC0-∞ [8, 12]: 28.876 ± 7.762 µg·h/mL
- Cmax [8, 12]: 8.444 ± 1.473 µg/mL
- T1/2 [8, 12]: 3.5 ± 1.9 h
- Tmax [8, 12]: 0.3 ± 0.2 h
- hygroscopicity [9, 13]: non-hygroscopic
- Solubility in pH 6.8 buffer [10]: 10.21 mg/mL
